The target in assay [1] is T1, NA2009wt (recombinant neuraminidase) (Influenza A virus, UniProt C3W6G3). Briefly: biochemical. In kind it is biochemical, A/California/07/2009 (H1N1) influenza virus. As to conditions: for Ki values, fluorometric assay, as described in the text / decrease in potency relative to oseltamivir carboxylate (4): pH 6.15; for Ki values, fluorometric assay, as described in the text: units given in the value; for decrease in potency relative to oseltamivir carboxylate (4): fluorometric assay.

The target in assay [2] is T1, NA2009wt (recombinant neuraminidase). The assay is described as follows: biochemical. In kind it is binding, A/California/07/2009 (H1N1) influenza virus.

Like-named read-outs stand apart in the source and are kept apart here.

Take `CCC(CC)O[C@@H]1C=C(C(=O)O)C[C@H](N[C@@H](CC(=O)O)C(=O)O)[C@H]1NC(C)=O` (mixture of isomers) [compound 10]: in assay [1], the “Ki values, fluorometric assay, as described in the text” value was “micromolar range”.
Usually Ki stands for the equilibrium dissociation constant of an inhibitor or competing ligand from its target. As to `CCC(CC)O[C@@H]1C=C(P(=O)(O)O)C[C@H](N)[C@H]1NC(C)=O` [compound 2, tamiphosphor, reference compound], the Ki in assay [1] amounted to 26 ± 4 nM; in assay [2] it was 52 ± 9 nM.
With `CCC(CC)O[C@@H]1C=C(C(=O)O)C[C@H](N[C@@H](C)C(=O)O)[C@H]1NC(C)=O` [compound 8], in assay [1], the Ki amounted to 15 ± 2 nM and the “decrease in potency relative to oseltamivir carboxylate (4)” value is given as “comparable to that of oseltamivir carboxylate”. Also, the Ki in assay [2] came out at 170 ± 60 nM.
On to `CCC(CC)O[C@@H]1C=C(C(=O)O)C[C@H](N[C@H](C)C(=O)O)[C@H]1NC(C)=O` [compound 9], for which, in assay [1], the Ki worked out at 250 ± 40 nM and the “decrease in potency relative to oseltamivir carboxylate (4)” value is given as ~10 fold. For the same compound, the Ki in assay [2] was determined as 960 ± 260 nM.
Take `CCC(CC)O[C@@H]1C=C(C(=O)O)C[C@H](NC(=O)COCCOCCOC)[C@H]1NC(C)=O` [compound 11]: the “Ki values, fluorometric assay, as described in the text” value in assay [1] was “micromolar range”.
